Measured values from PMC11628281, “A sulfonimide derivative of bezafibrate as a dual inhibitor of cyclooxygenase-2 and PPARα” (Frontiers in Pharmacology, 2024).

Molecular target: T1, cyclooxygenase (COX)-2 (Homo sapiens, UniProt P35354)
T1 construct: gene PTGS2
T1 sequence (P35354 18-604): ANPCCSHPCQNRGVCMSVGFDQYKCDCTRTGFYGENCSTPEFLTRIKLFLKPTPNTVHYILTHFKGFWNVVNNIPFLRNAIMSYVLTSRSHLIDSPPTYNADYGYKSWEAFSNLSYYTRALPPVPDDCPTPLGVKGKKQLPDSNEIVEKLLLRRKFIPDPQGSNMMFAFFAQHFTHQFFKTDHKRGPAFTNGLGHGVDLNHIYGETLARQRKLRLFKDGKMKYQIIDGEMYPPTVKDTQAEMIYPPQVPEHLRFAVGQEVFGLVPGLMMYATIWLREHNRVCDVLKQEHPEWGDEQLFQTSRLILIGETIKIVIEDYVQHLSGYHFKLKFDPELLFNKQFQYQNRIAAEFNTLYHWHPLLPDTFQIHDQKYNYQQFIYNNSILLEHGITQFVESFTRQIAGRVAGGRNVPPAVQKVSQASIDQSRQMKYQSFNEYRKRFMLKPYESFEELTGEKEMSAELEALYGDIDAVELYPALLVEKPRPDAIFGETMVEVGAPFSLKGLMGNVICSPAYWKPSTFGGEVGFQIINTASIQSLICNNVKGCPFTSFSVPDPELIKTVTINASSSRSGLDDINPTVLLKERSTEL
Experiment: LPS-stimulated human whole blood PGE2 (RIA); also HCA7 cells (COX-2 only), IC50 […], with washout

SMILES: CC(C)(Oc1ccc(CCNC(=O)c2ccc(Cl)cc2)cc1)C(=O)NS(=O)(=O)c1ccccc1 [compound 6, AA520]
- IC50: 100 nM
